Experimental findings from PubChem BioAssay (NCI) are described below.

Values joined by “and” are separate entries in the source; they are usually repeats but may differ in a detail not shown here. Equal entries are not always repeated.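 All cell lines were grown in 96-well plates and treated with compound for 48 hours. The concentration for 50% growth inhibition is given as GI50. TGI marks complete inhibition of growth.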

Test systems include OVCAR-5 ovarian; EKVX NSCLC; HCT-116 colon; SF-539 CNS; HCT-15 colon; MALME-3M melanoma; 786-0 renal; NCI-H522 lung; COLO 205 colon; KM12 colon.
Holding throughout (assay): NCI tumour cell line growth inhibition, 48 h

With `Cc1cc(C2CCCCC2)n(O)c(=O)c1`, the GI50 in the test on OVCAR-5 ovarian was 6.13 µM; in the test with EKVX NSCLC, 2.4 µM; in the test on HCT-116 colon, 1.02 µM; with SF-539 CNS it was 2.04 µM; in the test on HCT-15 colon, 0.655 µM; with MALME-3M melanoma, 2.66 µM. The GI50 in the test on 786-0 renal was 2.26 µM; with NCI-H522 lung, 4.8 µM; in the test with COLO 205 colon, 4.46 µM; with KM12 colon, 2.53 µM. The TGI is over 100 µM in the test on OVCAR-5 ovarian; over 100 µM with EKVX NSCLC; over 100 µM in the test with HCT-116 colon; 80.9 µM and 93.8 µM in the test on SF-539 CNS; > 100 µM and 38.1 µM with HCT-15 colon; > 100 µM and 49.4 µM in the test on MALME-3M melanoma. Moreover, the TGI was over 100 µM with 786-0 renal; 49.9 µM and 35.2 µM in the test with NCI-H522 lung; over 100 µM in the test with COLO 205 colon; over 100 µM with KM12 colon.

Turning to `Cc1cccc(N2C(=O)C(Cl)=C(Cl)C2=O)c1`, the TGI with OVCAR-5 ovarian is over 100 µM; in the test with EKVX NSCLC, over 100 µM; in the test on HCT-116 colon, over 100 µM; in the test with SF-539 CNS it was over 100 µM; in the test with HCT-15 colon it was over 58.4 µM; in the test on MALME-3M melanoma it was over 59.4 µM. In addition, the TGI is over 87.5 µM in the test on 786-0 renal, 22.7 µM in the test with NCI-H522 lung, over 100 µM in the test with COLO 205 colon and over 100 µM with KM12 colon.

Take `COC(=O)C(=O)C(C(=O)C(=O)Nc1ccc(C)cc1C)c1nc2ccccc2[nH]c1=O` (centres undefined): the TGI in the test with OVCAR-5 ovarian was over 100 µM; in the test on EKVX NSCLC, over 100 µM; in the test on HCT-116 colon it was over 100 µM; with SF-539 CNS it was 98.5 µM; in the test with HCT-15 colon it was over 100 µM; in the test with MALME-3M melanoma, over 100 µM. Also, the TGI in the test on 786-0 renal was over 100 µM; in the test with NCI-H522 lung, 93 µM; in the test on COLO 205 colon it was over 100 µM; with KM12 colon, over 100 µM.

Consider `CCCNC(=S)N/N=C(\C)c1ccccn1`, for which the GI50 in the test with OVCAR-5 ovarian was 0.529 µM; with EKVX NSCLC, 0.119 µM; in the test with HCT-116 colon it was under 0.01 µM; in the test on SF-539 CNS, 0.847 µM; in the test on HCT-15 colon, 0.0514 µM; in the test with MALME-3M melanoma, 2.11 µM. The GI50 with 786-0 renal was 0.959 µM; with NCI-H522 lung it was 3.22 µM; with COLO 205 colon, 0.04 µM; in the test on KM12 colon, 0.426 µM. The TGI is over 100 µM in the test with OVCAR-5 ovarian; over 100 µM in the test on EKVX NSCLC; over 100 µM in the test on HCT-116 colon; over 30.9 µM in the test with SF-539 CNS; over 100 µM in the test on HCT-15 colon; over 100 µM in the test with MALME-3M melanoma. Further, the TGI with 786-0 renal was over 26 µM; in the test on NCI-H522 lung, over 100 µM; in the test on COLO 205 colon, over 100 µM; in the test with KM12 colon it was over 100 µM.

Consider `O=[N+]([O-])c1ccc2nnnn2c1`, for which the TGI in the test on OVCAR-5 ovarian was over 100 µM; with EKVX NSCLC, over 100 µM; in the test with HCT-116 colon, 50.6 µM; with SF-539 CNS it was 65.7 µM; in the test on HCT-15 colon, 44.3 µM; with MALME-3M melanoma it was 60.5 µM. Besides, the TGI is over 100 µM with 786-0 renal, 13.2 µM in the test on NCI-H522 lung, over 100 µM in the test with COLO 205 colon and over 100 µM in the test with KM12 colon.

Regarding `O=C(O)C(Sc1ccc(Cl)cc1)Sc1ccc(Cl)cc1`, the TGI in the test with OVCAR-5 ovarian, with EKVX NSCLC, in the test on HCT-116 colon, in the test on SF-539 CNS, in the test with HCT-15 colon and in the test with MALME-3M melanoma was over 100 µM in each case. Further, the TGI is over 100 µM in the test with 786-0 renal, over 100 µM in the test with NCI-H522 lung, 59 µM with COLO 205 colon and over 100 µM with KM12 colon.

Take `N#Cc1cnsc1`: the TGI in the test on OVCAR-5 ovarian, in the test on EKVX NSCLC, in the test on HCT-116 colon, in the test with SF-539 CNS, with HCT-15 colon and with MALME-3M melanoma was over 100 µM throughout. Besides, the TGI in the test with 786-0 renal, in the test with COLO 205 colon and with KM12 colon was over 100 µM in each case.

With `Cn1cc(C2=C(c3cn(CCCN=C(N)N)c4ccccc34)C(=O)NC2=O)c2ccccc21`, the GI50 in the test with OVCAR-5 ovarian, with HCT-116 colon, in the test on SF-539 CNS, with HCT-15 colon, with MALME-3M melanoma and with 786-0 renal was over 25 µM in each case. The GI50 in the test on NCI-H522 lung was over 22.2 µM; with COLO 205 colon, 9.76 µM; with KM12 colon, over 25 µM. The TGI with OVCAR-5 ovarian, in the test on HCT-116 colon, with SF-539 CNS, in the test on HCT-15 colon, in the test with MALME-3M melanoma and with 786-0 renal was over 25 µM each time. For the same compound, the TGI with NCI-H522 lung, in the test with COLO 205 colon and in the test with KM12 colon was over 25 µM in each case.

With `C[C@]12CC[C@@H]3c4ccc(O)cc4CC[C@H]3[C@@H]1CC[C@@H]2NS(=O)(=O)c1ccc(C(F)(F)F)cc1`, the GI50 in the test with OVCAR-5 ovarian was 1.7 µM; with HCT-116 colon it was 1.74 µM; with SF-539 CNS, 1.6 µM; in the test with HCT-15 colon, 1.68 µM; with MALME-3M melanoma it was 2.03 µM; in the test with 786-0 renal it was 1.95 µM. For the same compound, the figures for the GI50 with NCI-H522 lung, in the test on COLO 205 colon and in the test on KM12 colon were 1.69 µM, 1.83 µM and 1.87 µM, respectively. For the same compound, the TGI in the test with OVCAR-5 ovarian was 3.26 µM; in the test with HCT-116 colon, 3.19 µM; in the test on SF-539 CNS, 2.97 µM; with HCT-15 colon it was 3.62 µM; in the test on MALME-3M melanoma, 4.37 µM; with 786-0 renal it was 3.77 µM. Also, the TGI turned out to be 3.85 µM in the test on NCI-H522 lung, 3.38 µM with COLO 205 colon and 3.57 µM in the test with KM12 colon.

As for `N#CCCN(CCC#N)c1ccc(/C=C2\N=C(CN3C(=O)c4ccccc4C3=O)OC2=O)cc1`, the TGI in the test with OVCAR-5 ovarian, with EKVX NSCLC, in the test with HCT-116 colon, with SF-539 CNS, with HCT-15 colon and with MALME-3M melanoma was over 100 µM each time. Besides, the TGI in the test with 786-0 renal, in the test with NCI-H522 lung and in the test on KM12 colon was over 100 µM throughout.
